The MBC is the smallest concentration meeting the test's criterion for killing. Read a high MBC as less potent killing.

Each structure is given as a SMILES string. Converted amounts (≈) assume the structure as drawn.

Consider 1 compound from patent US12427151B2, “Compositions and method of treating cancer” (The Regents of the University of California, priority 2017, dated 2025).

One data set relates to GBS DK23. Put plainly: MBC determination. The settings on record: Streptococcus, 3-log reduction, 24 hour, 37° C., half strength MHB in PBS. Type of data set: cell-based, group B Streptococcus. On the procedure: To determine MBC, bacteria were cultured in TSB (Staphylococcus), THB (Streptococcus) or Nutrient broth (P. aeruginosa and E. coli) by reaching exponential phase (OD600=0.5-0.8). […] After incubation, the number of viable bacteria was measured by counting CFU after spreading 10-fold serial dilutions of bacteria on suitable agar plates. MBC was determined as a 3-log reduction (99.9%) of viable bacteria after 24 hour incubation.
Antimicrobial activity of 6-HAP in vitro. To examine the specificity of 6-HAP for various bacteria, minimal bactericidal concentrations (MBCs) were determined according to dose-dependent killing curves at 24 hrs of incubation in vitro (Table 1). 6-HAP killed or suppressed growth of several major skin pathogens including GAS (NZ131), group B Streptococcus (GBS) (DK23), methicillin-sensitive S. aureus (ATCC35556), methicillin-resistant S. aureus (MRSA) strains (USA300 and Sanger252), Pseudomonas aeruginosa (P. aeruginosa) (ATCC14213) in vitro. […] S. epidermidis (ATCC12228) was also resistant to 6-HAP.

The subject of the next data set is M. luteus ATCC4698. Description: MBC determination. The class given is cell-based. The settings on record: Micrococcus luteus, 3-log reduction, 24 hour, 37° C., half strength MHB in PBS.
In data set [1] the test system is GAS. Put plainly: Stability of antimicrobial activity after heat or protease treatment (radial diffusion assay). The class given is physicochemical, group A streptococcus. The settings on record: activity against GAS. The text has this:
(a) Screening for antimicrobial activity of culture supernatant from 44 strains of S. epidermidis strains isolated from normal human skin by radial diffusion assay against group A streptococcus (GAS). Data represent diameter of growth inhibition zone of conditioned media of each strain. UD=undetectable. (b) Elution profile of the antimicrobial compound purified from culture supernatant of S. epidermidis MO34 by HPLC using a PolyHYDROXYMETHYL. The last step of 5 purification steps is shown. The insert panel represents antimicrobial activity of each fraction on radial diffusion assay against GAS. Green line represents a gradient of H2O in acetonitrile. (c-d) Stability of antimicrobial molecules from S. epidermidis producing the strongest antibiotic activity (MO34) against GAS after heat-treatment (100° C. for indicated time) (c) and incubation with proteinase K (2 mg/mL) or papain (2 mg/mL) at 37° C. for 3 hrs, followed by 5-min incubation at 90° C. to inactivate enzyme (d). Antimicrobial activity against GAS was determined by radial diffusion assay.
To characterize the molecule(s) responsible for antimicrobial activity secreted from the MO34 strain, the antimicrobial molecule was purified from the conditioned media based on activity against GAS. A single peak was isolated in the last chromatography of 5 purification steps (FIG. 1b). […]

Data set [2] relates to normal human keratinocytes (NHEK). Description: Cell proliferation assay (BrdU incorporation). Type of data set: cell-based. The settings on record: 24-hr incubation, until a very high dose (100 μg/mL). As for the experimental part: (a-b) Selective antiproliferative activity of 6-HAP against Pam212 squamous cell carcinoma, but not against normal keratinocytes. BrdU incorporation into Pam212 cells (b) or NHEKs (b) after 4-hr or 24-hr incubation, respectively, in suitable media containing indicated concentrations of 6-HAP or mitomycin C (10 μg/mL) (a). (c) Expression of mARC1 and mARC2 in NHEKs, squamous cell carcinoma (Pam212), melanoma (B16F10) and lymphoma cell lines (L5178). To compare relative expression level in each cells, data was shown as relative to GAPDH expression. (d) Expression of mARC1 and mARC2 in NHEKs treated with control siRNA, mARCI siRNA and mARC2 siRNA. (e) Effect of gene silencing with mARC1 and mARC2 siRNA on sensitivity to 6-HAP in NHEKs. NHEKs treated with each siRNA were incubated for 48 hrs and then incubated with 10 μg/mL of 6-HAP for 24 hrs.
Cell culture and cell proliferation assay. B16F10 mouse melanoma, Pam212, L5178 and YAC-1 mouse […] cell lines were obtained from American Type Culture Collection. […] After 4-hr (tumor cell lines) or 24-hr (NHEK) incubation with 6-HAP, proliferative activity of cells was colorimetrically determined by monitoring BrdU incorporation with Cell Proliferation kit according to the manual (Roche).
(In general: Dividing cells build labelled thymidine or BrdU into new DNA.)

In data set [3] the test system is GAS. Put plainly: Subcutaneous GAS deep skin infection in mice. The class given is in vivo, C57BL6 mouse. The settings on record: single intravenous injection 20 mg/kg after GAS inoculation. As for the experimental part:
(a-c) Effect of a single intravascular injection of 6-HAP on skin infection by GAS. The size of the infected lesion was measured by Image-J software (a). Representative images of infected skin (arrow) of mouse treated with 6-HAP or vehicle at Day-1 and Day-3 post infection are shown in (b). Infected skin was removed 24 and 72 hrs after bacterial injection and homogenized in PBS (c). CFUs were enumerated by plating serial dilutions of the homogenate on an agar plate. The data represent mean±SE of eight individual experiments (*P<0.05 and **P<0.01 by Student's t-test vs vehicle control). (d-e) Effect of repeated intravascular administrations with 6-HAP on growth of melanoma in mice. The data represent mean±SE of 10 individual experiments (*P<0.05, **P<0.01 and ***P<0.001 by Student's t-test vs vehicle control) (d). Representative images of tumor (broken line) in mouse treated with 6-HAP or vehicle at Day-9 and Day-13 are shown in (e).
For subcutaneous infection, mouse dorsal skin was subcutaneously injected with GAS (1×10^7 CFU/50 μL in PBS) by 31 G needle. […] Wound development was monitored everyday by taking photographs along with a wound ruler and lesion size was measured with ImageJ ([http://]rsbweb.nih.gov/ij/)(hyperlink disabled by brackets). […]

On to `ONc1ncnc2nc[nH]c12` [6-HAP, 6-N-hydroxyaminopurine], for which the results for the MBC in the data set on GBS DK23 and in the data set on M. luteus ATCC4698 were 0.781 µg/mL (≈ 5.17 µM) and 12.5 µg/mL (≈ 82.7 µM), respectively. The “heat stability of antimicrobial activity” value in the data set with GAS [1] (100° C. for indicated time) is recorded as “heat-stable”. Besides, in the data set on GAS [1] (proteinase K (2 mg/mL) or papain (2 mg/mL) at 37° C. for 3 hrs), the “protease sensitivity of antimicrobial activity” value is “protease-insensitive”. In addition, the BrdU incorporation entry in data set [2] is given as “not affected”. For the same compound, the “GAS survival in infected skin” value with GAS [3] is reported as “significantly suppressed”. In addition, in the data set on GAS [3], the clinical lesion size entry is on record as “significantly suppressed”.
